Results on 3 compounds are retold here after paper PMC11433870, “Neurotoxicity, Neuroprotection, In Vitro MAOA/MAOB Inhibitory Activity Assessment, Molecular Docking, and Permeability Assay Studies of Newly Synthesized Hydrazones Containing a Pyrrole Ring” (Molecules, 2024).

“And” between values parts separate entries of the source, which are not always exact repeats. Equal values may be shown once.

Data set [1] concerns isolated rat brain synaptosomes. In words: 6-OHDA-induced neurotoxicity model: synaptosomal viability. It counts as cell-based. As to conditions: toxic agent applied alone at 150 µM, compared to control (untreated synaptosomes). The procedure: (§1) Synaptosomes and mitochondria were obtained by multiple, subcellular fractionation using a Percoll gradient. The necessary brain homogenate was prepared and centrifuged at 1000× g for 5 min at +4 °C. After centrifugation, the supernatants were collected and centrifuged again at 1000× g for 5 min at +4 °C. The supernatants from the two centrifugations were mixed and distributed into four tubes. The tubes were centrifuged at 10,000× g for 20 min at +4 °C three times. The last two centrifugations were for purification of synaptosomes and mitochondria.
The isolation of the required fractions was based on the formation of a colloidal solution of silicon (Percoll), as per the procedure, including: 1. Preparation of a 90% stock solution of Percoll, followed by preparation of two Percoll solutions of different percentages: 16% and 10%. An amount of 4 mL of each of the prepared 16% and 10% Percoll solutions was placed in six test tubes. A 90% Percoll (7.5% Percoll) was added to the precipitate obtained from the previous step from the last centrifugation. The obtained mixtures in all 12 tubes were centrifuged for 20 min at 15,000× g +4 °C. […]
After 1 h incubation with the substances and toxic agent, synaptosomes were centrifuged on a microcentrifuge for 1 min at 15,000× g. […] After dissolution, the amount of formazan is measured spectrophotometrically at λ = 580 nm.

The test system is the same in data set [2]. In words: 6-OHDA-induced neurotoxicity model: GSH level. It counts as cell-based. As to conditions: for preservation of GSH level: 50 µM in combination with 6-OHDA (150 µM), compared to the toxic agent. How it is done: as §1
(§2) The isolation of the required fractions was based on the formation of a colloidal solution of silicon (Percoll), as per the procedure, including: 1. Preparation of a 90% stock solution of Percoll, followed by preparation of two Percoll solutions of different percentages: 16% and 10%. An amount of 4 mL of each of the prepared 16% and 10% Percoll solutions was placed in six test tubes. A 90% Percoll (7.5% Percoll) was added to the precipitate obtained from the previous step from the last centrifugation. The obtained mixtures in all 12 tubes were centrifuged for 20 min at 15,000× g +4 °C. After centrifugation, three layers are formed in the tubes. The bottom layer contains mitochondria, the top layer contains lipids, and the middle layer—at the 16% to 10% Percoll limit—contains synaptosomes. The respective layer from each tube is removed through a glass pasteurizer and collected into one. Buffer B + glucose is added to it. The mixture was centrifuged at 10,000× g for 20 min at +4 °C. Thus, the isolation buffer is exchanged with the incubation buffer. After centrifugation, the pellet where the synaptosomes are mixed and made up with buffer B + glucose.
(§3) Synaptosomes and mitochondria were incubated with the test substances at a concentration of 50 µM for 1 h.
Synaptosomes were incubated with 6-OHDA (150 μM) for 1 h.
(§4) After precipitation of the proteins with trichloroacetic acid, the thiol groups in the supernatant were determined by DTNB, which produced a yellow-colored compound that absorbs light at λ = 412 nm. After incubation, synaptosomes were centrifuged at 4000× g for 3 min. The supernatant was removed and the pellet taken for GSH determination. It was treated with 5% trichloroacetic acid, then left for 10 min on ice. It was centrifuged at 8000× g for 10 min (2 °C). The supernatant is taken for GSH determination and frozen at −20 °C. Immediately before measurement, the samples are neutralized with 5N NaOH [58].

For data set [3] the test system is unchanged. In words: Neurotoxicity: synaptosomal viability (MTT), substances applied alone. It counts as cell-based. As to conditions: 50 µM applied alone, 1 h, compared to control (untreated synaptosomes). How it is done: as §1, §2, §3
After 1 h incubation with the substances and toxic agent, synaptosomes were centrifuged on a microcentrifuge for 1 min at 15,000× g. The pellet was mixed gently with buffer B + glucose, and the supernatant where 6-OHDA was discarded to prevent oxidation of MTT. Centrifuge again at 15,000× g for 1 min. After the second wash, buffer B + glucose was added to the pellet. To the ‘washed’ synaptosomes, 60 µL of MTT solution is added. The plates were incubated with the MTT solution at 37 °C for 10 min. After incubation, the samples were centrifuged at 15,000× g for 2 min. The excess liquid was removed, and a DMSO solution was used to dissolve the formed formazan crystals. After dissolution, the amount of formazan is measured spectrophotometrically at λ = 580 nm.

The test system is the same in data set [4]. In words: Neurotoxicity: reduced glutathione (GSH) level in synaptosomes, substances applied alone. Type of data set: cell-based. As to conditions: 50 µM applied alone, 1 h, compared to control. How it is done: as §1, §2, §3, §4
The subject of data set [5] is isolated rat brain mitochondria. Briefly: Neurotoxicity: MDA production in brain mitochondria, substances applied alone. It counts as cell-based. As to conditions: 50 µM applied alone, compared to control. The procedure:
as §1, §2, §3
To the mitochondria was added 0.3 mL of 0.2% thiobarbituric acid and 0.25 mL of sulfuric acid (0.05 M), and the mixture was boiled for 30 min. After boiling, the tubes were placed on ice, and 0.4 mL of n-butanol was added to each, then centrifuged at 3500× g for 10 min. The amount of MDA was determined spectrophotometrically at 532 nm.

Data set [6] shares this test system. Briefly: Neurotoxicity: GSH level in brain mitochondria, substances applied alone. Type of data set: cell-based. As to conditions: 50 µM applied alone, compared to control. How it is done: as §1, §2
[…]. After centrifugation of the homogenate at 6000× g, a 0.04% solution of DTNB was added to the supernatant to give a yellow color, the determination being spectrophotometric at 412 nm.

Data set [7] concerns isolated rat brain microsomes. Briefly: Neurotoxicity: MDA production in brain microsomes, substances applied alone. Type of data set: cell-based. As to conditions: 50 µM applied alone, compared to control. How it is done: (§5) The brain was homogenized in 9 volume parts of 0.1 M Tris buffer containing: 0.1 mM dithiothreitol, 0.1 mM phenylmethylsulfonyl fluoride, 0.2 mM EDTA, 1.15% KCl, and 20% (v/v) glycerol (pH 7.4). The resulting homogenate was centrifuged twice at 17,000× g for 30 min. The supernatants from the two centrifugations were pooled and centrifuged twice at 100,000× g for 1 h. The pellet was frozen in 0.1 M Tris buffer.
(§6) After completion of incubation of the microsomes with the substances and toxic agent, the reaction was stopped by the addition of 0.5 mL of 20% trichloroacetic acid, followed by 0.5 mL of 0.67% thiobarbituric acid. The ongoing reactions are associated with the formation of a colored complex between the malondialdehyde formed and thiobarbituric acid. The determination of MDA was spectrophotometric at 535 nm. A molar extinction coefficient of […] was used for the calculation.

Data set [8] relates to isolated rat brain microsomes. In words: Fe2+/AA-induced non-enzyme lipid peroxidation model: MDA production. As to conditions: 50 µM in combination with Fe2+/AA, compared to the toxic agent. Type of data set: cell-based. The procedure: as §5
Non-enzyme-induced lipid peroxidation was induced with 20 μM ferrous sulfate solution and 0.5 mM ascorbic acid solution [62].
as §6

Data set [9] has as its target T1, human recombinant MAOA enzyme (hMAOA) (Homo sapiens, UniProt P21397).
T1 sequence (P21397 1-527): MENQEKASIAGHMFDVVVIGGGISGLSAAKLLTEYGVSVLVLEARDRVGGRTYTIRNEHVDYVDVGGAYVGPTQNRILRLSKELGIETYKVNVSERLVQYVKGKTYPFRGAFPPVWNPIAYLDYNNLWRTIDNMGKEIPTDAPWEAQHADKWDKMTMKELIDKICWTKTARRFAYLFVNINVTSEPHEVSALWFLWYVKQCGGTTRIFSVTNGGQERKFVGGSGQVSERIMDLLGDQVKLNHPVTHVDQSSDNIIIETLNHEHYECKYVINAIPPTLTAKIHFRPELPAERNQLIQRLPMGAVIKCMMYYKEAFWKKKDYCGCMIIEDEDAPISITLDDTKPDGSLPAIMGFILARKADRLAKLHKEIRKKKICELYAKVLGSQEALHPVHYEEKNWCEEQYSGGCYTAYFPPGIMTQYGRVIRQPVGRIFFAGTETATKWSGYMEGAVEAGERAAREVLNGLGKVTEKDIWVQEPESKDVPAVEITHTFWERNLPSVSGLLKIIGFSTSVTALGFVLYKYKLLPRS
Briefly: Human recombinant MAOA enzyme activity (fluorometric, Amplex Red). It counts as biochemical. As to conditions: read-out: IC50 (EC50), (µM ± SD) hMAOA.
Description: (§7) The activity of recombinant human MAOA/B was determined fluorometrically. Tyramine hydrochloride was used as substrate. The activity is determined by detection of H2O2 production. This production is in turn reported by binding to horseradish peroxidase using N-acetyl-3,7-dihydroxyphenoxazine (AmplexRed, Thermo Fisher Scientific, Waltham, MA, USA) [63].
(§8) Working solutions of the test substances, reagents, and human recombinant MAOA/B enzyme (hMAOA/B) were prepared in reaction buffer according to the manufacturer’s instructions. A pure working solution of MAOA/B in reaction buffer, a working solution of MAOA/B containing hydrogen peroxide, and a pure reaction buffer were used as controls. Substances were applied at a final concentration of 1 µM. The substances together with hMAOB were placed in a 96-well plate (8 samples for each substance), and then the plate was placed in an incubator for 30 min (in the dark, at 37 °C). Fluorimetric readings were performed in a Synergy 2 Microplate Reader at two wavelengths (570 nm and 690 nm).

The target of data set [10] is T2, human recombinant MAOB enzyme (hMAOB) (Homo sapiens, UniProt P27338).
T2 sequence (P27338 1-520): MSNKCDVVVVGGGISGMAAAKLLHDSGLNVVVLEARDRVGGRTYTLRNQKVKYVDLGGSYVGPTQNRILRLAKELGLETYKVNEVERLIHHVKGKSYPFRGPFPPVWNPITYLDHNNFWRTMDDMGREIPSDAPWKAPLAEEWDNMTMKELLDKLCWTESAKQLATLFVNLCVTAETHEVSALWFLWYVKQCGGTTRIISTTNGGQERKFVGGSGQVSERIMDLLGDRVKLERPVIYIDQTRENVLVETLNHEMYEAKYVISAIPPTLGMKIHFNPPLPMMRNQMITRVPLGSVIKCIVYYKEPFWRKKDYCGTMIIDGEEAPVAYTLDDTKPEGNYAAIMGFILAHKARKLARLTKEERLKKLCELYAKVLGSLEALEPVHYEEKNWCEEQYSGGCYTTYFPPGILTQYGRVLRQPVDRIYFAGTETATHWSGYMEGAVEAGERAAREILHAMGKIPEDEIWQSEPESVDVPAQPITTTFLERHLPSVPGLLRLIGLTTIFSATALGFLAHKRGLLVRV
Briefly: Human recombinant MAOB enzyme activity (fluorometric, Amplex Red).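 As to all read-outs here: tyramine as substrate, H2O2 formation detected by horseradish peroxidase coupled Amplex Red fluorescence read at 570 and 690 nm, compounds incubated with enzyme 30 min at 37 °C.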 Type of data set: biochemical. As to conditions: for inhibition at 1 µM: compared to control (pure hMAOB); for IC50: read-out: IC50 (EC50), (µM ± SD) hMAOB.
Description: as §7, §8

The conditions of data set [11]: pH 7.4, 50 µM, 4 h, 25 °C; Pe calculated in 10^−6 cm/s, presented as −logPe.
For data set [12], the system named is isolated rat brain mitochondria. Briefly: t-BuOOH-induced oxidative stress model: GSH level. As to conditions: 50 µM in combination with t-BuOOH (75 µM), compared to the toxic agent.
For data set [13] the test system is unchanged. Briefly: t-BuOOH-induced oxidative stress model: MDA production. As to conditions: 50 µM in combination with t-BuOOH (75 µM), compared to the toxic agent.

For `NCCc1cc(O)c(O)cc1O` [6-OHDA, 6-hydroxydopamine, reference compound], in [1], the “decrease in synaptosomal viability by toxic agent alone” value was 50%. Further, the “decrease in GSH level by toxic agent alone” value in [2] (toxic agent applied alone at 150 µM, compared to control) was determined as 50%.
With `CCOC(=O)c1cc(-c2ccc(Br)cc2)n(CCC(=O)NN=Cc2ccc(N(C)C)cc2)c1C` [8a], the “decrease of synaptosomal viability” value in [3] was 35%. In [4], the “decrease of glutathione (GSH) level” value is 25%. Besides, the figures for the “increase of MDA production” value in data set [5] and in data set [7] were 60% and 55%, respectively. The “decrease of GSH level” value in [6] was found to be 20%. In addition, the “preservation of GSH level” value in data set [2] was 40%; in data set [12] it was 60%. Also, the “decrease of MDA production” value in data set [8] stood at 35%. The figures for the IC50 in data set [9] and in data set [10] were more than 100 µM and 0.821 ± 0.1 µM, respectively. Further, in data set [10], the “SI: hMAOB selectivity index = IC50(hMAOA)/IC50(hMAOB)” value is listed as more than 122. Moreover, in data set [10], the inhibition (usually how much of the control response was suppressed) at 1 µM stood at 20%. Moreover, the “PAMPA BBB −logPe” value in data set [11] was 5.268 and 5.268 ± 0.014. The “reduction of MDA production” value in data set [13] is 18%.
Turning to `CCOC(=O)c1cc(-c2ccc(Br)cc2)n(CCC(=O)NN=Cc2ccc(Cl)cc2)c1C` [8b], the “decrease of synaptosomal viability” value in data set [3] is 30%. Further, the “decrease of glutathione (GSH) level” value in [4] turned out to be 20%. Also, the “increase of MDA production” value in [5] turned out to be 52%; in [7], 51%. Besides, in data set [6], the “decrease of GSH level” value came to 20%. Also, the “preservation of GSH level” value in data set [2] and in data set [12] was 50% each time. In [8], the “decrease of MDA production” value was found to be 31%. In addition, the IC50 (in general, the concentration that inhibits the measured activity by half) was more than 100 µM in [9] and 0.815 ± 0.1 µM in [10]. Moreover, the “SI: hMAOB selectivity index = IC50(hMAOA)/IC50(hMAOB)” value in data set [10] is recorded as more than 123. Further, the inhibition at 1 µM in data set [10] came out at 25%. In addition, in data set [11], the “PAMPA BBB −logPe” value is 4.444 ± 0.004. Further, the “reduction of MDA production” value in data set [13] was determined as 9%.
